Data on 8 molecules can be found in patent US5723461A, “Quinoxalines, a process for their preparation and their use” (Hoechst Aktiengesellschaft, priority 1994, dated 1998).

The test system of one assay is HIV. Nature of the assay: Testing of preparations against HIV in cell culture (T-cell culture assay). It counts as cell-based. Particulars: Human immunodeficiency virus 1, 72 h, HIV-infected lymphocytes, 3 days at 37° C., lowest concentration at which no giant cells occurred, read-out: MIC EC50. Here is the method:
Testing of preparations against HIV in cell culture
Description of the method:
Complete medium additionally contains 20% fetal calf serum and 40 IU/ml recombinant interleukin 2.
Lymphocytes, which have been isolated from fresh donor blood by means of Ficoll® gradient centrifugation, are cultured, for 36 hours at 37° C. and under 5% CO2, in complete medium which additionally contains […] phytohemagglutinin (Wellcome). After 10% DMSO has been added, the cells are frozen at a cell density of 5×10^6 and stored in liquid nitrogen. For the experiment, the cells are thawed, washed in the RPMI medium and cultured for 3 to 4 days in the complete medium.
The test preparations were dissolved in DMSO at a concentration of 16.7 mg/ml, and these solutions were diluted with complete medium to a concentration of 1 mg/ml. 0.4 ml of medium was initially introduced into 24-well multiwell plates. After 0.1 ml of the dissolved preparation had been added to the upper row of the plate, a geometric dilution series was produced by transferring 0.1 ml on each occasion. Preparation-free controls contained 0.4 ml of complete medium containing 0.5% DMSO.
Lymphocyte cultures having a cell count of 5×10^5 cells/ml were infected by adding a 1/50 volume of the supernatant from HIV-infected lymphocyte cultures. The titer of these culture supernatants was determined by end-point dilution to be 1-5×10^6 infectious units/ml. After having been incubated at 37° C. for 30 min, the infected lymphocytes were centrifuged off and taken up once again in the same volume of medium. 0.6 ml of this cell suspension was added to each of the wells in the test plate. The assay mixtures were incubated at 37° C. for 3 days.
The infected cell cultures were examined under the microscope for the presence of giant cells, which are indicative of active viral replication in the culture. The lowest preparation concentration at which no giant cells occurred was determined and taken to be the inhibitory concentration against HIV. As a control, the supernatants from the culture plates were assayed for the presence of HIV antigen using an HIV antigen test in accordance with the manufacturer's (Organon) instructions.

Assay [1] has as its target T1, HIV reverse transcriptase (Human immunodeficiency virus type 1 group M subtype B, UniProt P04585).
T1 construct: purchased HT Biotechnology Ltd., Cambridge, UK; host or cells: E. coli
Nature of the assay: Inhibition of HIV reverse transcriptase (scintillation proximity assay). It counts as biochemical. The conditions noted are these: Reverse transcriptase assay (SPA), 60 min, 37° C. Here is the method:
Examination of the substances for their ability to inhibit HIV reverse transcriptase
The activity of the reverse transcriptase (RT) was determined using a scintillation proximity assay (SPA).
The reagent kit for the RT SPA was obtained from Amersham/Buchler (Braunschweig). The RT enzyme (derived from HIV and cloned in E. coli) was obtained from HT Biotechnology Ltd., Cambridge, UK.
The test was carried out in accordance with the manufacturer's (Amersham) methods manual, with the following modifications:
Bovine serum albumin was added to the assay buffer to a final concentration of 0.5 mg/ml.
The test was carried out in Eppendorf tubes using an assay mixture volume of 100 μl.
The manufacturer's RT concentrate (5000 U/ml) was diluted to an activity of 15 U per ml using 20 mM tris-HCl buffer, pH 7.2, 30% glycerol.
The assay mixtures were incubated for 60 min (37° C.).
After the reaction had been stopped and "developed" with the bead suspension, 130 μl of assay mixture were transferred into 4.5 ml of 10 mM tris-HCl buffer, pH 7.4, 0.15M NaCl and the tritium activity was measured in a β-counter.
In order to carry out a preliminary test of their inhibitory activity, the substances were dissolved in DMSO (stock solution, c=1 mg/ml) and tested when diluted 10^-1, 10^-2, 10^-3 etc. in DMSO.
In order to determine IC50 values, the stock solutions of inhibitor were further diluted in 50 mM tris-HCl buffer, pH 8, and tested at suitable concentrations.
The concentration associated with 50% inhibition of the enzyme was ascertained from the plot of RT activity against log Cinh.
Background: In a scintillation proximity assay essentially only radioactivity close to the scintillant gives light.

Converted amounts (≈) assume the structure as drawn. Bounds are passed on as bounds.

The term EC50 denotes the concentration that produces a half-maximal response. Usually IC50 stands for the concentration needed to halve the response being measured. Read a low IC50 as greater potency in that assay.

Regarding `COc1ccc2c(c1)N(C(=O)OC(C)C)[C@@H](CSC)C(=O)N2` [Example 29, S-4-Isopropoxycarbonyl-6-methoxy-3-(methylthiomethyl)-3,4-dihydroquinoxalin-2(1H)-one], the EC50 with HIV was below 8 ng/mL. This molecule came in with an IC50 in assay [1] of 30.8 to 308 nM.

With `C=CCOC(=O)N1c2cc(Cl)ccc2NC(=O)[C@@H]1CC` [Example 58], the EC50 in the assay with HIV worked out at 10 ng/mL (≈ 0.0339 µM). For the same molecule, the IC50 in assay [1] was 33.9 to 339 nM.

In the case of `CC[C@H]1C(=S)Nc2ccc(F)cc2N1C(=O)OC` [Example 140h], in the assay with HIV, the concentration for a half-maximal effect (EC50) was determined as 10 ng/mL (≈ 0.0373 µM). This molecule also gave an IC50 in assay [1] of 29.8 nM.

For the molecule `CC[C@H]1C(=O)Nc2ccc(Cl)cc2N1C(=O)OC(C)C` [Example 35], in the assay with HIV, the EC50 was below 80 ng/mL. The IC50 in assay [1] is 33.7 nM.

In the case of `CCCOc1ccc2c(c1)N(C(=O)OC(C)C)[C@@H](CSC)C(=S)N2` [Example 110], in the assay on HIV, the EC50 was 4 ng/mL (≈ 0.0109 µM). In assay [1], this molecule came in with an IC50 of 27.1 to 271 nM.

Regarding `CSC[C@H]1C(=S)Nc2ccc(Cl)cc2N1C(=O)OC(C)C` [Example 94], the EC50 with HIV is below 8 ng/mL. Also, inhibition in assay [1] was half-maximal at 43.5 nM (IC50).

Consider `CC[C@H]1C(=S)Nc2ccc(O)cc2N1C(=O)OC(C)C` [Example 140b], for which the EC50 in the assay with HIV was below 80 ng/mL. In assay [1], the IC50 is 238 nM.

For `C=C(C)OC(=O)N1c2cc(Cl)ccc2NC(=S)[C@@H]1CSC` [Example 115], the EC50 in the assay on HIV was determined as 1.6 ng/mL (≈ 0.00467 µM). In assay [1], this molecule had an IC50 of 29.2 nM.
